Test systems include 786-0 renal; A498 renal; SF-268 CNS; SF-295 CNS; DLD-1 colon; SK-MEL-28 melanoma; MALME-3M melanoma; SF-539 CNS; SK-MEL-2 melanoma.
Assay in all cases: NCI-60 cell line screen, 48 h

Structures are written as SMILES.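 How tested: cells in 96-well plates exposed to compound for 48 hours at five concentrations. The concentration for 50% growth inhibition is given as GI50. Definition used: TGI = concentration required for complete inhibition of growth.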 Bounds are passed on as bounds.

Turning to `Cc1cccc(C)c1NC(=O)CCC(=O)NC(N)=NC#N`, the TGI in the experiment on 786-0 renal, in the experiment with A498 renal, with SF-268 CNS, in the experiment with SF-295 CNS, with DLD-1 colon and with SK-MEL-28 melanoma was greater than 100 µM each time. The TGI with MALME-3M melanoma and with SF-539 CNS was greater than 100 µM throughout.
As for `COc1ccc(OC)c(Nc2nc3nonc3nc2Nc2cccc(Br)c2)c1`, the GI50 in the experiment on 786-0 renal is 1.71 µM; in the experiment on A498 renal, 0.461 µM; with SF-268 CNS, 0.982 µM; in the experiment with SF-295 CNS, 0.429 µM; in the experiment on SK-MEL-28 melanoma, 0.779 µM; in the experiment on MALME-3M melanoma it was 0.471 µM. Also, the GI50 in the experiment with SK-MEL-2 melanoma was 0.509 µM; in the experiment with SF-539 CNS, 1.25 µM. The TGI with 786-0 renal is 13.8 µM; in the experiment on A498 renal, 4.11 µM; in the experiment on SF-268 CNS it was greater than 100 µM; in the experiment with SF-295 CNS it was 3.29 µM; in the experiment on SK-MEL-28 melanoma it was greater than 100 µM; in the experiment on MALME-3M melanoma it was 5.52 µM. Further, the results for the TGI with SK-MEL-2 melanoma and in the experiment on SF-539 CNS were 3.84 µM and 29.5 µM, respectively.
With `CCN(CC)CCNC(=O)c1cccc2c1-c1ccccc1C2=O`, the GI50 in the experiment with 786-0 renal, in the experiment with A498 renal, in the experiment with SF-268 CNS, in the experiment on SF-295 CNS, in the experiment with SK-MEL-28 melanoma and in the experiment with MALME-3M melanoma was greater than 100 µM throughout. The GI50 with SK-MEL-2 melanoma is greater than 100 µM; in the experiment on SF-539 CNS, 95.1 µM. For the same molecule, the TGI with 786-0 renal, in the experiment on A498 renal, with SF-268 CNS, in the experiment with SF-295 CNS, in the experiment on SK-MEL-28 melanoma and in the experiment on MALME-3M melanoma was greater than 100 µM in each case. In addition, the TGI with SK-MEL-2 melanoma and in the experiment with SF-539 CNS was greater than 100 µM in each case.
Consider `NS(=O)(=O)c1ccc(N=Nc2ccc[nH]c2=O)cc1`, for which the TGI in the experiment with 786-0 renal, in the experiment on A498 renal, in the experiment with SF-268 CNS, in the experiment with SF-295 CNS, in the experiment with SK-MEL-28 melanoma and in the experiment with MALME-3M melanoma was greater than 100 µM in each case. Besides, the TGI in the experiment with SK-MEL-2 melanoma and in the experiment with SF-539 CNS was greater than 100 µM throughout.
With `Cc1ccc(S(=O)(=O)OCOS(=O)(=O)c2ccc(C)cc2)cc1`, the TGI in the experiment on 786-0 renal, in the experiment on SF-268 CNS, in the experiment on SF-295 CNS, in the experiment on DLD-1 colon, in the experiment with SK-MEL-28 melanoma and in the experiment with MALME-3M melanoma was greater than 100 µM throughout. Further, the TGI in the experiment with SK-MEL-2 melanoma and in the experiment with SF-539 CNS was greater than 100 µM throughout.
On to `CCOc1cc(-c2nncn2C)ccc1Nc1ncc2cc(C)nc(NCC(C)(C)C)c2n1`, for which the GI50 in the experiment with 786-0 renal was greater than 100 µM; in the experiment with A498 renal, 0.514 µM; with SF-268 CNS, greater than 100 µM; in the experiment with SF-295 CNS it was greater than 100 µM; in the experiment on SK-MEL-28 melanoma, greater than 100 µM; in the experiment with MALME-3M melanoma it was greater than 100 µM. For the same molecule, the GI50 in the experiment on SK-MEL-2 melanoma was greater than 100 µM. The TGI with 786-0 renal, with A498 renal, in the experiment with SF-268 CNS, with SF-295 CNS, in the experiment on SK-MEL-28 melanoma and in the experiment on MALME-3M melanoma was greater than 100 µM throughout. Besides, the TGI in the experiment with SK-MEL-2 melanoma and in the experiment with SF-539 CNS was greater than 100 µM in each case.
For the molecule `COc1cccc2c1C(=O)c1c(O)c3c(c(O)c1C2=O)C[C@@](O)(/C(CO)=N/NC(=O)CCCCCN1C(=O)C=CC1=O)C[C@@H]3O[C@H]1C[C@H](N)[C@H](O)[C@H](C)O1`, the GI50 was 0.386 µM in the experiment with 786-0 renal; 0.361 µM in the experiment with A498 renal; 0.648 µM in the experiment with SF-268 CNS; 0.404 µM in the experiment on SF-295 CNS; 1.61 µM in the experiment with SK-MEL-28 melanoma; 0.395 µM in the experiment on MALME-3M melanoma. The GI50 with SK-MEL-2 melanoma was 1.68 µM; with SF-539 CNS, 0.734 µM. In addition, the TGI in the experiment with 786-0 renal is 9.21 µM; in the experiment with A498 renal, 2.15 µM; in the experiment with SF-268 CNS it was 12.4 µM; in the experiment with SF-295 CNS it was 5.56 µM; with SK-MEL-28 melanoma it was 5.67 µM; in the experiment on MALME-3M melanoma, 2.23 µM. Also, the TGI with SK-MEL-2 melanoma was determined as 5.33 µM; in the experiment with SF-539 CNS, 7.82 µM.
For `Cc1ccc(/C=N/NC(=O)c2ccccc2Oc2ccccc2)o1`, the GI50 in the experiment with 786-0 renal is greater than 100 µM; in the experiment with A498 renal, greater than 58.5 µM; in the experiment on SF-268 CNS it was 42.9 µM; in the experiment on SF-295 CNS, 27.9 µM; in the experiment with SK-MEL-28 melanoma it was 36.6 µM; in the experiment on MALME-3M melanoma it was 36.8 µM. Moreover, the results for the GI50 in the experiment with SK-MEL-2 melanoma and with SF-539 CNS were 25.5 µM and greater than 83.6 µM, respectively. Moreover, the TGI in the experiment with 786-0 renal, in the experiment with A498 renal, with SF-268 CNS, with SF-295 CNS, in the experiment on SK-MEL-28 melanoma and in the experiment on MALME-3M melanoma was greater than 100 µM each time. Further, the figures for the TGI with SK-MEL-2 melanoma and in the experiment on SF-539 CNS were greater than 90.9 µM and greater than 100 µM, respectively.
Consider `Cc1ccc(C[As+](c2ccccc2)(c2ccccc2)c2ccccc2)cc1`, for which the GI50 in the experiment on 786-0 renal is 3.15 µM; in the experiment on A498 renal, 0.581 µM; in the experiment on SF-268 CNS, 1.08 µM; with SF-295 CNS it was 0.753 µM; in the experiment on SK-MEL-28 melanoma, 0.927 µM; in the experiment with MALME-3M melanoma, 0.297 µM. Also, the results for the GI50 in the experiment on SK-MEL-2 melanoma and in the experiment on SF-539 CNS were 0.887 µM and 1.71 µM, respectively. The TGI in the experiment on 786-0 renal was greater than 46.4 µM; with A498 renal, 5.07 µM; in the experiment with SF-268 CNS, greater than 42.2 µM; in the experiment on SF-295 CNS it was 4.41 µM; in the experiment with SK-MEL-28 melanoma, 18.5 µM; with MALME-3M melanoma it was 11.6 µM. The TGI turned out to be 4.34 µM with SK-MEL-2 melanoma and 28.3 µM with SF-539 CNS.
With `CN1CCN(CCCNC(=O)c2c3c(n4ccccc24)C(=O)c2ncccc2C3=O)CC1`, the GI50 in the experiment on 786-0 renal is 1.63 µM; in the experiment on A498 renal, 10 µM; in the experiment on SF-268 CNS it was 1.28 µM; in the experiment with SF-295 CNS, 1.25 µM; in the experiment on SK-MEL-28 melanoma it was 4.57 µM; with MALME-3M melanoma, 0.376 µM. For the same molecule, the GI50 was 2.67 µM in the experiment with SK-MEL-2 melanoma and 1.99 µM in the experiment with SF-539 CNS. Besides, the TGI with 786-0 renal amounted to 22.3 µM; with A498 renal, 25.1 µM; with SF-268 CNS it was 24.4 µM; with SF-295 CNS, 13.1 µM; in the experiment on SK-MEL-28 melanoma, 19.1 µM; in the experiment on MALME-3M melanoma it was 0.99 µM. Moreover, the TGI in the experiment on SK-MEL-2 melanoma came to 11.4 µM; with SF-539 CNS, 6.56 µM.

The values above are taken from PubChem BioAssay (NCI).
